Reference: patent publication US12344614B2, “Benzodiazepine derivatives as GABA a GAMMA1 PAM” (Hoffmann-La Roche Inc., priority 2021, dated 2025)
Read-outs that look alike come from different tables or passages of the source.

Assays:
[1] = molecular target: human GABAA α1β3γ2 receptor (Homo sapiens (Human), UniProt P14867+P18507); assay: Radioligand binding assay, competition for [3H]Flumazenil, HEK293F cells; conditions: for γ2/γ1 Selectivity Ratio: Ki α1β3γ2 (nM)/Ki α2β2γ1 (nM); for LogSel: Log[Ki α1β3γ2 (nM)/Ki α2β2γ1 (nM)]
Method: The affinity of compounds at GABAA γ2 subunit-containing receptors was measured by competition for [^3H]Flumazenil (81.1 Ci/mmol; Roche) binding to HEK293F cells expressing human (transiently transfected) receptors of composition α1β3γ2.
Harvested pellets from HEK293F cells expressing the different GABAA γ2 receptor subtypes were resuspended in Mannitol Buffer pH 7.2-7.4 and processed as described above for the cells expressing the GABAA γ1 subunit-containing receptors.
Assays were incubated to equilibrium for 1 hour at 4° C. and harvested onto GF/C uni-filters (Packard) by filtration using a Packard harvester and washing with ice-cold wash buffer (50 mM Tris; pH 7.5). After anhydrousing, filter-retained radioactivity was detected by liquid scintillation counting. Ki values were calculated using Excel-Fit (Microsoft) and are the means of two determinations.

[2] = molecular target: human GABAA α5β2γ1 receptor (Homo sapiens (Human), UniProt P31644+Q8N1C3); assay: Radioligand binding assay, competition for [3H]RO7239181, membranes from HEK293F cells
Method: The affinity of compounds at GABAA γ1 subunit-containing receptors was measured by competition for [^3H]RO7239181 (67.3 Ci/mmol; Roche) binding to membranes from HEK293F cells (ThermoFisher R79007) expressing human (transiently transfected) receptors of composition α5β2γ1, α2β2γ1, α1β2γ1. For better protein expression of the α2 subunit-containing receptors, the 28 amino acid long signal peptide (Met1 to Ala28) of the human GABAA α2 subunit was substituted by the 31 amino acid long signal peptide (Met1 to Ser31) of human GABAA α5 subunit.
(§1) Harvested pellets from HEK293F cells expressing the different GABAA receptor subtypes were resuspended in Mannitol Buffer pH 7.2-7.4 (Mannitol 0.29M, Triethylamine 10 mM, Acetic acid 10 mM, EDTA 1 mM plus protease inhibitors (20 tablets Complete, Roche Diagnostics Cat. No. 05 056 489 001 per liter)), washed two times and then resuspended at 1:10 to 1:15 dilution in the same buffer. Cell disruption was performed by stirring the suspension in a Parr vessel #4637 at 435 psi for 15 minutes, and then the suspensions were centrifuged at 1000×g for 15 minutes at 4° C. (Beckman Avanti J-HC; rotor JS-4.2). The supernatant (S1) was transferred in a 21 Schott flask and the pellet (P1) was resuspended with Mannitol Buffer up to 175 ml. The resuspended pellet was transferred into a 250 ml Corning centrifugal beaker and centrifuged at 1500×g for 10 minutes at 4° C. (Beckman Avanti J-HC; rotor JS-4.2). The supernatant (S1) was then transferred in the 21 Schott flask and the pellet was discarded. The supernatants (S1) were centrifuged in 500 ml Beckman polypropylene centrifugal beaker at 15′000×g for 30 minutes at 4° C. (Beckman Avanti J-20 XP; rotor JLA-10.500). The pellet (P2) was resuspended with Mannitol Buffer 1:1 and frozen at −80° C. The supernatant (S2) was centrifuged in 100 ml Beckman polypropylene centrifugal tubes at 48000×g for 50 minutes at 4° C. (Beckman Avanti J-20 XP; rotor JA-18). The supernatant (S3) was discarded and the pellet (P3) was resuspended with 1:1 Mannitol Buffer. The P2 and P3 protein concentration was determined with the BIORAD Standard assay method with bovine serum albumin as standard and measured on the NANO-Drop 1000. The membrane suspension was aliquots (500 μl per tube) and stored at −80° C. until required.
(§2) Membrane homogenates were resuspended and polytronised (Polytron PT1200E Kinematica AG) in Potassium Phosphate 10 mM, KCl 100 mM binding buffer at pH 7.4 to a final assay concentration determined with a previous experiment.
Radioligand binding assays were carried out in a volume of 200 μL (96-well plates) which contained 100 μL of cell membranes, [^3H]RO7239181 at a concentration of 1.5 nM (α5β2γ1) or 20-30 nM (α1β2γ1, α2β2γ1) and the test compound in the range of [0.3-10000]×10^−9 M. Nonspecific binding was defined by 10×10^−6 (α5β2γ1) and 30×10^−6 M RO7239181 and typically represented less than 5% (α5β2γ1) and less than 20% (α1β2γ1, α2β2γ1) of the total binding. Assays were incubated to equilibrium for 1 hour at 4° C. and then, membranes were filtered onto unifilter (96-well white microplate with bonded GF/C filters preincubated 20-50 minutes in 0.3% Polyethylenimine) with a Filtermate 196 harvester (Packard BioScience) and washed 4 times with cold Potassium Phosphate 10 mM pH 7.4, KCl 100 mM binding buffer. After anhydrousing, filter-retained radioactivity was detected by liquid scintillation counting. Ki values were calculated using Excel-Fit (Microsoft) and are the means of two determinations.
Representative test results, obtained by the above described assay measuring binding affinity to HEK293 cells expressing human (h) receptors, are shown in the Table 1.

[3] = molecular target: human GABAA α2β2γ1 receptor (Homo sapiens (Human), UniProt P47869+Q8N1C3); assay: as above
Method: The affinity of compounds at GABAA γ1 subunit-containing receptors was measured by competition for [^3H]RO7239181 (67.3 Ci/mmol; Roche) binding to membranes from HEK293F cells (ThermoFisher R79007) expressing human (transiently transfected) receptors of composition α5β2γ1, α2β2γ1, α1β2γ1.
as §1, §2
Assays were incubated to equilibrium for 1 hour at 4° C. and then, membranes were filtered onto unifilter (96-well white microplate with bonded GF/C filters preincubated 20-50 minutes in 0.3% Polyethylenimine) with a Filtermate 196 harvester (Packard BioScience) and washed 4 times with cold Potassium Phosphate 10 mM pH 7.4, KCl 100 mM binding buffer. After anhydrousing, filter-retained radioactivity was detected by liquid scintillation counting. Ki values were calculated using Excel-Fit (Microsoft) and are the means of two determinations.

[4] = read-out: Ki h-GABAA α2β2γ1, [3H]RO7239181 20-30 nM, HEK293F membranes, 1 hour at 4° C., mean of two determinations

Structure (SMILES) | Ki [1] | γ2/γ1 Selectivity Ratio [1] | LogSel [1] | Ki [2] | Ki [3] | Ki [3, 4]
COC1CN(C(=O)c2ncn3c2CN=C(c2cc(O)ccc2F)c2c-3ccc(C(F)(F)F)c2Cl)C1 [Example 15, [7-chloro-6-(2-fluoro-5-hydroxy-phenyl)-8-(trifluoromethyl)-4H-imidazo[1,5-a][1,4]benzodiazepin-3-yl]-(3-methoxyazetidin-1-yl)methanone] | 121 nM | 28.9 | 1.46 | 0.85 nM | 4.18 nM | 4.18 nM
O=c1ccn2c(n1)CN=C(c1cc(O)ccc1F)c1c-2ccc(Cl)c1Cl [Example 6, 8,9-dichloro-7-(2-fluoro-5-hydroxy-phenyl)-5H-pyrimido[1,2-a][1,4]benzodiazepin-3-one] | 46.7 nM | 21.4 | 1.33 | 0.39 nM | 2.18 nM | 2.18 nM
CN1C(=O)CN=C(c2c(F)ccc(O)c2F)c2c1ccc(Cl)c2Cl [Example 12, 6,7-dichloro-5-(2,6-difluoro-3-hydroxy-phenyl)-1-methyl-3H-1,4-benzodiazepin-2-one] | 371 nM | 175.4 | 2.24 | 0.46 nM | 2.12 nM | 2.12 nM
O=c1ccn2c(n1)CN=C(c1c(F)ccc(O)c1F)c1c-2ccc(Cl)c1Cl [Example 14, 8,9-dichloro-7-(2,6-difluoro-3-hydroxy-phenyl)-5H-pyrimido[1,2-a][1,4]benzodiazepin-3-one] | 74.6 nM | 16.0 | 1.20 | 0.85 nM | 4.67 nM | 4.67 nM
Cc1cnc2n1-c1ccc(C(F)(F)F)c(Cl)c1C(c1nc(O)ccc1Cl)=N[C@H]2C [Example 26, 5-chloro-6-[(4S)-7-chloro-1,4-dimethyl-8-(trifluoromethyl)-4H-imidazo[1,2-a][1,4]benzodiazepin-6-yl]pyridin-2-ol] | 6730 nM | 853.7 | 2.93 | 3.25 nM | 7.88 nM | 7.88 nM
COC1CN(C(=O)c2nc3n(n2)-c2ccc(C(F)(F)F)c(Cl)c2C(c2cc(O)ccc2F)=NC3)C1 [Example 16, [7-chloro-6-(2-fluoro-5-hydroxy-phenyl)-8-(trifluoromethyl)-4H-[1,2,4]triazolo[1,5-a][1,4]benzodiazepin-2-yl]-(3-methoxyazetidin-1-yl)methanone] | 164 nM | 45.6 | 1.66 | 1.04 nM | 3.6 nM | 3.6 nM
Cc1nnc2n1-c1ccc(Cl)c(Cl)c1C(c1cc(O)ccc1F)=N[C@H]2C [Example 4, 4-fluoro-3-[(4S)-7,8-dichloro-1,4-dimethyl-4H-[1,2,4]triazolo[4,3-a][1,4]benzodiazepin-6-yl]phenol] | 81.7 nM | 41.1 | 1.61 | 0.38 nM | 1.99 nM | 1.99 nM
Cc1nnc2n1-c1ccc(Cl)c(Cl)c1C(c1c(F)ccc(O)c1F)=NC2 [Example 13, 3-(7,8-dichloro-1-methyl-4H-[1,2,4]triazolo[4,3-a][1,4]benzodiazepin-6-yl)-2,4-difluoro-phenol] | 72.6 nM | 18.8 | 1.28 | 0.4 nM | 3.85 nM | 3.85 nM
Cc1nc2n(n1)-c1ccc(C(F)(F)F)c(Cl)c1C(c1nc(O)ccc1Cl)=N[C@H]2C [Example 29, 5-chloro-6-[(4S)-7-chloro-2,4-dimethyl-8-(trifluoromethyl)-4H-[1,2,4]triazolo[1,5-a][1,4]benzodiazepin-6-yl]pyridin-2-ol] | 12000 nM | 1557.5 | 3.19 | 3.63 nM | 7.7 nM | 7.7 nM
